Measurements reported in patent publication EP0443559A2, “HIV protease inhibiting agents” (BIO-MEGA/BOEHRINGER INGELHEIM RESEARCH INC., priority 1990, dated 1991).

Columns and labels:
HIV protease = HIV protease (Human immunodeficiency virus type 1 group M subtype B, UniProt P04585); experiment: biochemical
Excerpt: The procedure is based on the capacity of the test compound to inhibit enzymatic cleavage by HIV protease of a decapeptide (the substrate) having an amino acid sequence which includes a known HIV protease cleavage site of a HIV polyprotein; see H.G. Krausslich et al., Proc. Natl. Acad. Sci. USA, 86,807(1989).
Recombinant HIV Protease HPLC Assay: Enzyme: HIV protease was expressed in E. coli [construct pBRT1 prt⁺, see W.G. Farmerie et al., Science, 236, 305 (1987)], according to the following protocol: Unless stated otherwise, all solutions are aqueous solutions.
E. coli cells containing the pBRT1 prt⁺ plasmid were used to inoculate a seed culture media composed of Luria-Bertani Broth containing 100µg/mL of ampicillin. Flasks were incubated at 37° under agitation for 17 h. Production flasks containing sterile M9 broth, supplemented with 100µg/ml of ampicillin, were inoculated at a level of 1% (v/v) using the seed culture described above. Total volume in each production flask was 500 mL in a 2 L Erlenmeyer flask. Flasks were incubated at 37° under agitation until a cell concentration corresponding to an optical density (λ= 540 m) of 0.6 was reached (no dilution). This time span was routinely 3-4 h. Flasks were then supplemented with 5mM isopropylthiogalactoside (IPTG, Research Organics, Cleveland, Ohio, USA) and incubation was continued until the cell concentration reached an optical density of 0.2 at 16-fold dilution. Flasks were then supplemented with 1mM phenylmethylsulfonyl fluoride (PMSF) and rapidly chilled to 4°. The bacterial cells were recovered by centrifugation at 4°. The wet pellet was stored at -70°.
All steps below were performed at 4° unless otherwise indicated. Thawed cells were mixed with buffer A [50 mM […] HCl(Tris-HCl, pH 7.4); 0.6 mM ethylenediaminetetraacetic acid (EDTA); 0.375 M NaCl, 0.2% Nonidet P-40 ^R (BDH Chemicals Ltd., Poole, UK); 1mM PMSF], at a ratio of one part cells to nine parts buffer A. Diatomaceous earth (Celite 545 ^R , John Manville, Lompoc, CA, USA) was added at a ratio of two parts to one part of wet cell weight. The resulting slurry was homogenized at high speed (ca. 20,000 rpm) on a Waring ^R industrial blender for 8 x 15 sec. pulses. Cell debris/Celite ^R was collected by centrifugation and the resulting pellet was extracted with 4.5 parts of buffer A to one part wet solids using the homogenization procedure described above. Supernatants from both homogenization steps were combined and soluble protein was precipitated by the addition of solid (NH₄)₂SO₄ to yield a final concentration of 75% saturation. This mixture was agitated for 60 min and the precipitate was recovered by centrifugation. The resulting pellet was suspended in buffer B [50mM Tris-HCl, pH 8; 30 mM NaCl; 1 mM DL-dithio-threitol (DTT); 1 mM EDTA; 1 mM PMSF; 10% glycerol], and dialyzed for 18h against the same buffer.
An aliquot of the dialyzed extract containing 150 mg of the protein was loaded onto a Sephadex A25 ^R anion exchange column. (Pharmacia, Uppsala, Sweden) with bed dimensions of 70 cm length and 2.5 cm diameter. The sample was eluted isocratically with buffer B at a linear flow rate of 10 cm/h. Fractions containing HIV protease activity (see below for assay description) were combined, and soluble protein was precipitated by the addition of saturated aqueous (NH₄)₂SO₄ to yield a total (NH₄)₂SO₄ concentration of 85% saturation. Precipitated protein was removed by centrifugation and the resulting pellet was dissolved in buffer C [50 mM 2-(4-morpholino)ethanesulfonic acid (MES), pH 5.5; 150 mM NaCl; 1 mM DTT; 1 mM EDTA; 10% glycerol]. This preparation was dialyzed for 18h against buffer C, and then frozen at -70°. All crude extracts were purified by chromatography in aliquots containing 150 mg of protein in the same manner as described above. The final preparations from each batch were pooled, divided into 34µL aliquots and stored at -70°.

HIV = settings: at 20µg/mL; C8166 cells, H9/HTLV-IIIB, 72 h
Protocol: The following protocol, used for screening antiviral effects of the compounds of formula 1, is adapted from a plaque assay utilizing HTLV-I transformed cells which was developed by Harada et al., supra. HTLV-I transformed cells are used in these assays because of the rapidity with which HIV will replicate in these cells. • 1. The test compound is dissolved in dimethylsulfoxide to a concentration of 5 mg/mL. The resultant solution can be stored at 4° until used. • 2. The resultant solution is diluted in RPMI 1640 (Gibco Laboratories, St. Lawrence, MA, USA) to four times (4x) the final concentration which is to be tested. Once diluted in RPMI 1640, the solution is used in the cell culture assay within 4 h. • 3. The 4x solution (50µL) is added to triplicate wells of a 96 well flat bottomed microtiter plate. RPMI 50µL also is added to control wells. • 4. C8166 cells (5 x 10⁻⁴) in 50 µL of HEPES-buffered RPMI 1640, 10% heat inactivated fetal calf serum (FCS), 12.5µL/ml gentamicin (complete media) are added to all wells. • 5. […] Infectious titer of virus stocks are as previously determined by end point dilution on C8166 cells. […] Plates are then removed and centers of syncytia are counted in each well by low power phase contrast light microscopy. […] Percent inhibition of syncytia formation is calculated by the formula: [formula]

Row | Structure (SMILES) | IC50 (HIV protease) | inhibition of syncytia formation (HIV)
1 | CC(=O)N[C@H](C(=O)N[C@@H](CC1CCCCC1)[C@@H](O)CC(=O)N[C@@H](CC(C)C)C(=O)N[C@@H](Cc1ccccc1)C(N)=O)C(C)(C)C [Example 11, Ac-Tbg-ACHPA-Leu-Phe-NH₂] | 200 nM | 72%
2 | CC(C)C[C@H](NC(=O)C[C@H](O)[C@H](CC1CCCCC1)NC(=O)[C@@H](NC(=O)CCc1ccc(OCC(=O)OCc2ccccc2)cc1)C(C)C)C(=O)N[C@@H](Cc1ccccc1)C(N)=O [Example 2, [4-(BzlOC(O)CH₂O)Ph]CH₂CH₂C(O)-Val-ACHPA-Leu-Phe-NH₂] | 170 nM | –
3 | CC[C@H](C)[C@H](NC(=O)[C@H](CCC(N)=O)NC(=O)[C@H](CC(C)(C)C)NC[C@H](Cc1ccccc1)NC(=O)[C@@H](NC(C)=O)C(C)C)C(N)=O [Example 21, Ac-Val-Pheψ[CH₂NH]Tba-Gln-Ile-NH₂] | 720 nM | –
4 | CC(=O)N[C@H](C(=O)N[C@H](CN[C@@H](CC(C)C)C(=O)N[C@H](C(=O)N[C@@H](COCc1ccccc1)C(N)=O)C(C)C)Cc1ccccc1)C(C)C [Example 22, Ac-Val-Pheψ[CH₂NH]Leu-Val-Ser(OBzl)-NH₂] | 29 nM | –
5 | CC[C@H](C)[C@H](NC(=O)[C@H](CCC(=O)O)NC(=O)[C@H](CC(C)C)NC[C@H](Cc1ccccc1)NC(=O)[C@@H](NC(C)=O)C(C)C)C(N)=O [Example 12, Ac-Val-Pheψ[CH₂NH]Leu-Glu-Ile-NH₂] | 6.7 nM | –
6 | CC[C@H](C)[C@H](NC(=O)[C@H](CCC(N)=O)NC(=O)[C@H](CC(C)C)NC[C@H](Cc1ccccc1)NC(=O)[C@@H](NC(=O)[C@H](C)O)C(C)C)C(N)=O [Example 19, [(S)-CH₃CH(OH)C(O)]-Val-Pheψ[CH₂NH]Leu-Gln-Ile-NH₂] | 660 nM | –
7 | CC[C@H](C)[C@H](NC(=O)[C@H](CCC(N)=O)NC(=O)[C@H](CC(C)C)NC[C@H](Cc1ccccc1)NC(=O)[C@@H](NC(C)=O)[C@@H](C)CC)C(N)=O [Example 16, Ac-Ile-Pheψ[CH₂NH]Leu-Gln-Ile-NH₂] | 180 nM | –
8 | CC(=O)N[C@H](C(=O)N[C@@H](CC1CCCCC1)[C@@H](O)CC(=O)N[C@@H](CC(C)C)C(=O)N[C@@H](Cc1ccccc1)C(N)=O)C(C)C [Example 5, Ac-Val-ACHPA-Leu-Phe-NH₂] | 280 nM | 97%
9 | CC(C)C[C@H](NC(=O)C[C@H](O)[C@H](CC1CCCCC1)NC(=O)[C@@H](NC(=O)[C@@H](O)CO)C(C)C)C(=O)N[C@@H](Cc1ccccc1)C(N)=O [Example 4, [(S)-HOCH₂CH(OH)C(O)]-Val-ACHPA-Leu-Phe-NH₂] | 180 nM | –
